Bounds are passed on as bounds.

Data set [1] addresses T1, Human immunodeficiency virus type 1 protease (Human immunodeficiency virus 1, UniProt Q72874).
Data set [2] in a line: Maximal plasma concentration in dogs at 10mg/kg oral dose 0.05M citric acid. Conditions: dog.
Another data set is described as follows: in vivo. Conditions: dog, po, 10 mg/kg.
Data set [3] deals with Human immunodeficiency virus type 1 protease (Human immunodeficiency virus 1) (UniProt Q72874). In words: Inhibition of HIV-1 protease in vitro.
The nature of data set [4]: Partition coefficient (logP). Conditions: octanol/water.
Data set [5] addresses Human immunodeficiency virus type 1 protease (Human immunodeficiency virus 1) (UniProt Q72874). In words: Concentration required for 95% inhibition of Protease.
The target in data set [6] is T1, Human immunodeficiency virus type 1 protease. As to the kind of experiment: Concentration required for 50% inhibition of Protease.
For data set [7], the target named is Human immunodeficiency virus type 1 protease (Human immunodeficiency virus 1) (UniProt Q72874). As to the kind of experiment: Concentration required for 95%Inhibition of Protease.

For orientation: IC50 means the concentration that inhibits the measured activity by half. One may read the Cmax as the highest concentration seen after dosing. Usually IC95 stands for the concentration at which the effect reaches the 95% level. In data set [1], `CC(C)(C)NC(=O)[C@@H]1CN(Cc2cnc3occc3c2)CCN1C[C@@H](O)C[C@@H](Cc1ccccc1)C(=O)N[C@H]1c2ccccc2C[C@H]1O` showed an IC50 of 0.35 nM. In data set [2], this compound returned a Cmax of 15000 nM. The concentration at 8 h in “in vivo” was 9430 nM. The same compound returned an IC95 in data set [3] of 6 nM.
In general, logP refers to the decadic logarithm of the partition coefficient of the neutral form, usually between octanol and water. A lower logP goes with lower lipophilicity. For the compound `COc1ncccc1CN1CCN(C[C@@H](O)C[C@@H](Cc2ccccc2)C(=O)NC2c3ccccc3C[C@H]2O)[C@H](C(=O)NC(C)(C)C)C1` (stereo not given in full), half-maximal inhibition in data set [1] (IC50) required 1.1 nM. The same compound gave a logP in data set [4] above 3.84. The same compound had a Cmax in data set [2] of 515 nM. The 95% effect level in data set [3] (IC95) was put at 12 nM.
In data set [1], `CC(C)(C)NC(=O)[C@@H]1CN(Cc2cc3cnccc3o2)CCN1C[C@@H](O)C[C@@H](Cc1ccccc1)C(=O)NC1c2ccccc2C[C@H]1O` (stereo not given in full) returned an IC50 of 0.22 nM. The compound also displayed an IC95 in data set [3] of 6 nM.
In data set [5], `Cc1nn(C)c2ncc(CN3CCN(C[C@@H](O)C[C@@H](Cc4ccccc4)C(=O)NC4c5ccccc5C[C@H]4O)[C@H](C(=O)NC(C)(C)C)C3)c(Cl)c12` (stereo not given in full) returned an IC95 of 12.5 nM. This compound registered an IC50 in data set [6] of 0.14 nM.
`CC(C)(C)NC(=O)[C@@H]1CN(Cc2cnc3ccoc3c2)CCN1C[C@@H](O)C[C@@H](Cc1ccccc1)C(=O)NC1c2ccccc2C[C@H]1O` (stereo not given in full) came in with an IC50 in data set [1] of 0.17 nM. In data set [2], this compound gave a peak concentration (Cmax) of 9720 nM. This compound also gave a concentration at 8 h in “in vivo” of 1550 nM. Also, the IC95 in data set [3] amounted to 3 nM.
On to `Cc1cc2oc(CN3CCN(C[C@@H](O)C[C@@H](Cc4ccccc4)C(=O)NC4c5ccccc5C[C@H]4O)[C@H](C(=O)NC(C)(C)C)C3)cc2cn1` (stereo not given in full), for which half-maximal inhibition in data set [1] (IC50) was put at 0.19 nM. This compound also returned an IC95 in data set [3] of 12 nM.
`CC(C)(C)NC(=O)[C@@H]1CN(Cc2cnc3c(c2)CCO3)CCN1C[C@@H](O)C[C@@H](Cc1ccccc1)C(=O)NC1c2ccccc2C[C@H]1O` (stereo not given in full) came in with an IC50 in data set [1] of 0.68 nM. In data set [2], this compound gave a Cmax of 160 nM. Moreover, the 95% effect level in data set [3] (IC95) was put at 25 nM.
In data set [1], `CCOc1ccc(CN2CCN(C[C@@H](O)C[C@@H](Cc3ccccc3)C(=O)NC3c4ccccc4C[C@H]3O)[C@H](C(=O)NC(C)(C)C)C2)cn1` (stereo not given in full) showed an IC50 of 3.4 nM. Besides, in data set [4], the logP was 3.62. Besides, in data set [2], the maximum concentration (Cmax) is 300 nM. Besides, in data set [3], the IC95 came to 100 nM.
In the case of `CC(C)(C)NC(=O)[C@@H]1CN(Cc2cc3ccccc3o2)CCN1C[C@@H](O)C[C@@H](Cc1ccccc1)C(=O)N[C@H]1c2ccccc2C[C@H]1O` [L 756423], half-maximal inhibition in data set [1] (IC50) required 0.18 nM. In data set [2], this compound showed a peak concentration (Cmax) of 28300 nM. The compound also registered a concentration at 8 h in the data set “in vivo” of 800 nM. Besides, the IC95 in data set [3] is 25 nM.
Compound `CC(C)(C)NC(=O)[C@@H]1CN(Cc2cc3ccncc3o2)CCN1C[C@@H](O)C[C@@H](Cc1ccccc1)C(=O)NC1c2ccccc2C[C@H]1O` (stereo not given in full) returned an IC50 in data set [1] of 0.39 nM. Moreover, the Cmax in data set [2] worked out at 36500 nM. The compound also displayed a 95% effect concentration (IC95) in data set [3] of 12.5 nM.
Consider `Cc1ccc(CN2CCN(C[C@@H](O)C[C@@H](Cc3ccccc3)C(=O)NC3c4ccccc4C[C@H]3O)[C@H](C(=O)NC(C)(C)C)C2)cn1` (stereo not given in full), for which the half-inhibitory concentration (IC50) in data set [1] came to 0.62 nM. The lipophilicity (logP) in data set [4] turned out to be 2.14. The compound further displayed a concentration for an effect of 95% (IC95) in data set [3] of 100 nM.
For `CC(C)(C)NC(=O)C1CN(Cc2csc3ncccc23)CCN1CC(O)CC(Cc1ccccc1)C(=O)NC1c2ccccc2CC1O` (stereo not given), the 95% effect level in data set [7] (IC95) was put at 6 nM. For the same compound, in data set [2], the Cmax was determined as 230 nM. In data set [6], this compound had an IC50 of 0.2 nM.
As for `CSc1ncccc1CN1CCN(C[C@@H](O)C[C@@H](Cc2ccccc2)C(=O)NC2c3ccccc3C[C@H]2O)[C@H](C(=O)NC(C)(C)C)C1` (stereo not given in full), the IC50 in data set [1] came to 0.26 nM. Further, the IC95 in data set [3] came out at 15.6 nM.
In turn, `CC(C)(C)NC(=O)C1CN(Cc2cc3cccnc3s2)CCN1CC(O)CC(Cc1ccccc1)C(=O)NC1c2ccccc2CC1O` (stereo not given) returned a half-inhibitory concentration (IC50) in data set [1] of 0.11 nM. Besides, the IC95 in data set [3] was found to be 12.5 nM.
For `CC(C)(C)NC(=O)[C@@H]1CN(Cc2cnc3ccccc3c2)CCN1C[C@@H](O)C[C@@H](Cc1ccccc1)C(=O)NC1c2ccccc2C[C@H]1O` (stereo not given in full), in that order: 0.14 nM and 25 nM.
For `CC(C)(C)NC(=O)[C@@H]1CN(Cc2ccc(Cl)nc2)CCN1C[C@@H](O)C[C@@H](Cc1ccccc1)C(=O)NC1c2ccccc2C[C@H]1O` (stereo not given in full), half-maximal inhibition in data set [1] (IC50) was put at 0.49 nM. Also, the logP in data set [4] was above 3.84. This compound also gave an IC95 in data set [3] of 12 nM.
The compound `CC(C)(C)NC(=O)[C@@H]1CN(Cc2cc3ccsc3s2)CCN1C[C@@H](O)C[C@@H](Cc1cccnc1)C(=O)N[C@H]1c2ccccc2C[C@H]1O` showed an IC95 in data set [3] of 6 nM.
As to `CC(C)(C)NC(=O)[C@@H]1CN(Cc2nc3ccccc3[nH]2)CCN1C[C@@H](O)C[C@@H](Cc1ccccc1)C(=O)NC1c2ccccc2C[C@H]1O` (stereo not given in full), in data set [1], the IC50 is 0.47 nM. In data set [3], the IC95 was 200 nM.
Compound `Cc1nn(C)c2ncc(CN3CCN(C[C@@H](O)C[C@@H](Cc4ccccc4)C(=O)NC4c5ccccc5C[C@H]4O)[C@H](C(=O)NC(C)(C)C)C3)cc12` (stereo not given in full) had an IC95 in data set [5] of 6 nM. Further, in data set [2], the highest level (Cmax) was 190 nM. In data set [6], this compound showed an IC50 of 0.35 nM.
`CCOC(=O)c1cnc2oc(CN3CCN(CC(O)CC(Cc4ccccc4)C(=O)NC4c5ccccc5CC4O)C(C(=O)NC(C)(C)C)C3)cc2c1` (stereo not given) had an IC95 in data set [5] of 25 nM. The same compound came in with a 50% inhibitory concentration (IC50) in data set [6] of 0.27 nM.
As to `Cc1c(CN2CCN(CC(O)CC(Cc3ccccc3)C(=O)NC3c4ccccc4CC3O)C(C(=O)NC(C)(C)C)C2)oc2ccccc12` (stereo not given), in data set [5], it took 25 nM to reach the 95% level (IC95). The same compound yielded a Cmax in data set [2] of 408 nM. This compound also showed an IC50 in data set [6] of 0.11 nM.
For `CC(C)(C)NC(=O)[C@@H]1CN(C(=O)c2cnc3occc3c2)CCN1C[C@@H](O)C[C@@H](Cc1ccccc1)C(=O)NC1c2ccccc2C[C@H]1O` (stereo not given in full), in that order: 100 nM, 130 nM and 1.7 nM.
For the compound `CC(C)(C)NC(=O)C1CN(Cc2cc3cc(CO)cnc3o2)CCN1CC(O)CC(Cc1ccccc1)C(=O)NC1c2ccccc2CC1O` (stereo not given), in data set [5], the IC95 stood at 62.5 nM. Moreover, in data set [6], the IC50 was 0.18 nM.
Regarding `CC(C)(C)NC(=O)[C@@H]1CN(Cc2cnc3occc3c2Cl)CCN1C[C@@H](O)C[C@@H](Cc1ccccc1)C(=O)NC1c2ccccc2C[C@H]1O` (stereo not given in full), the concentration for half-maximal inhibition (IC50) in data set [1] turned out to be 0.25 nM. The Cmax in data set [2] was determined as 3940 nM. Further, the concentration at 8 h in “in vivo” was found to be 2060 nM. This compound also yielded an IC95 in data set [3] of 15.6 nM.
`CC(C)(C)NC(=O)C1CN(Cc2cc3cccnc3o2)CCN1CC(O)CC(Cc1ccccc1)C(=O)NC1c2ccccc2CC1O` (stereo not given) returned an IC50 in data set [1] of 0.32 nM. Also, in data set [2], the concentration peaked (Cmax) at 1170 nM. The compound also yielded an IC95 in data set [3] of 50 nM.
In data set [1], `CC(C)(C)NC(=O)C1CN(Cc2ccc3occc3c2)CCN1CC(O)CC(Cc1ccccc1)C(=O)NC1c2ccccc2CC1O` (stereo not given) returned an IC50 of 1.7 nM. The compound also registered an IC95 in data set [3] of 100 nM.
For `CC(C)(C)NC(=O)C1CN(Cc2c[nH]c3ccccc23)CCN1CC(O)CC(Cc1ccccc1)C(=O)NC1c2ccccc2CC1O` (stereo not given), in that order: 1.7 nM and 50 nM.
In data set [3], `CC(C)(C)NC(=O)[C@@H]1CN(Cc2cccnc2)CCN1C[C@@H](O)C[C@@H](Cc1ccccc1)C(=O)N[C@H]1c2ccccc2C[C@H]1O` gave an IC95 of 50 nM.
